Data reported in patent publication US12558383B2, “American cockroach extract, preparation thereof, preparation methods therefor and applications thereof” (SICHUAN GOOD DOCTOR PANXI PHARMACEUTICAL CO., LTD, priority 2019, dated 2026).
Marks after values point to notes of the source that are not given here.

Legend:
[1] = tested on: NO release, LPS induced mouse macrophages (RAW264.7); assay: NO release of LPS-stimulated RAW264.7 macrophages (Griess method); assay type: cell-based; conditions: positive drug andrographolide group; LPS 1 μg/mL, NO at 12 h; n=3
Protocol: (§1) Based on TNF-a-IL-6/iNOS-NO inflammatory signal pathway, the regulatory effects of drugs MLG, MLP and MLX on LPS induced inflammation of mouse macrophages (RAW264.7) were evaluated.
(§2) The original solution of drugs MLG, MLP and MLX was diluted by 80 times, 120 times and 160 times, respectively, incubated with cells for 12 h in advance, and used to stimulate cells to induce inflammation by a final concentration of 1 μg/ml LPS. Enzyme linked immunosorbent assay (ELISA) and Griess method were used to detect the release amount of TNF-α at 50 min, and IL-6 at 4 h and NO at 12 h upon LPS stimulation.
(§3) The original solution of drugs MLG, MLP and MLX was diluted by 80 times, 120 times and 160 times respectively, incubated with cells for 12 hours in advance, and then added with 1 μg/mL LPS to stimulate cell inflammation. […]
(§4) All indexes were tested strictly in accordance with the instructions of kits. Finally, the absorbance value at the specific wavelengths were detected on an enzyme labeling instrument, and the content of indexes of each sample were calculated according to the standard curve prepared by the same method. If the absorbance value is lower than the absorbance value of the sample at the lower limit of the standard curve, it is counted as lower than the relevant value, and the relevant statistics are calculated as 0 mean and 0 variance.

[2] = tested on: TNF-α release, LPS induced mouse macrophages (RAW264.7); assay: TNF-α release of LPS-stimulated RAW264.7 macrophages (ELISA); assay type: cell-based; conditions: positive drug andrographolide group; LPS 1 μg/mL, TNF-α at 50 min; n=3
Protocol: as §1, §2, §3, §4

[3] = tested on: IL-6 release, LPS induced mouse macrophages (RAW264.7); assay: IL-6 release of LPS-stimulated RAW264.7 macrophages (ELISA); assay type: cell-based; conditions: positive drug andrographolide group; LPS 1 μg/mL, IL-6 at 4 h; n=3
Protocol: as §1, §2, §3, §4

[4] = tested on: cotton ball granuloma in mice; assay: Cotton ball granuloma in mice; assay type: in vivo; conditions: extracts 2 mL/kg, dexamethasone 0.2 mg/kg, 7 consecutive days, n=10
Protocol: Fifty mice weighing 18-22 g were taken, 10/group, half male and half female. The mice were fixed, and disinfected on the chest with iodine. Iodine was removed with 75% alcohol cotton ball. A small hole was cut in the chest, 20 mg high-pressure sterilized cotton ball was implanted into the armpit subcutaneously from the incision with ophthalmic forceps, and then the skin was sutured. […] The above groups were administrated for 7 consecutive days. Before the end of the test on the 8th day, the body weight was measured, then the mice were killed by taking off the cervical vertebra. The implanted cotton ball was taken out together with the surrounding connective tissue, removed of the adipose tissue, wet weighted, placed into the oven at 60° C. for 24 hours, and weighed on a precision balance. The weight of granuloma was obtained by subtracting the original weight of cotton ball from the weighed weight, and the comparison and statistical analysis between groups were carried out.

[5] = tested on: skin capillary permeability induced by xylene in mice; assay: Increase of skin capillary permeability induced by xylene in mice (Evans blue); assay type: in vivo; conditions: extracts 2 mL/kg intragastric, dexamethasone 0.375 mg/kg, once a day 7 times
Protocol: Fifty mice weighing 18-22 g were randomly divided into five groups according to their body weights: MLX, MLG and MLP test groups. […] One hour after the last administration, various mice were injected with 0.5% Evans blue normal saline solution by 0.1 ml/10 g bw via caudal vein, and then xylene were dropped by 30 μL/per mouse on the abdominal skin depilated 24 hours in advance. After 20 minutes, the mice were killed by removing the cervical vertebra. The blue stained skin on the abdomen was cut off, and cut into pieces with surgical scissors, placed into a test tube with a plug, added with and soaked in 5 ml of acetone normal saline (7:3), placed in the dark for 72 hours, and centrifuged at 3000 r/min for 10 minutes to obtain a supernatant. Colorimetric detection was performed at the wavelength of 590 nm on a spectral scanning multifunctional reader to measure the absorbance (OD value). The permeability is represented by OD value, and the results are statistically compared.

Row | SMILES | NO [1] [µM] | TNF-α [2] [pg/mL] | IL-6 [3] [pg/mL] | Dry weigh of granuloma [4] | Wet weigh of granuloma [4] [mg] | inhibition at 0.375 mg/kg ([5]; Mus musculus, po, 168 h, n=10, read-out: Inhibitory rate) [%] | Inhibitory rate ([5]; n=10) [%]
1 | C=C1CC[C@@H]2[C@](C)(CO)[C@H](O)CC[C@@]2(C)[C@@H]1C/C=C1/C(=O)OC[C@H]1O [Andro., andrographolide] | 1.86 ± 0.34 | 592.26 ± 45.7 | 286.07 ± 47.81 | – | – | – | –
2 | C[C@@H]1C[C@H]2[C@@H]3CCC4=CC(=O)C=C[C@]4(C)[C@@]3(F)[C@@H](O)C[C@]2(C)[C@@]1(O)C(=O)CO [dexamethasone] | – | – | – | 35.63 ± 8.38**^ mg | 252.3 ± 33.6 | > 80 | 80.7
